The experiment deals with T1, cloned human MC4R (Homo sapiens, UniProt P32245).
T1 construct: made in house; host or cells: Hi5 insect cells (baculovirus infection); membrane preparation
As to the kind of experiment: Membrane binding assay: competitive inhibition of [125I]NDP-α-MSH binding. As to conditions: for IC50: read-out: MC4R IC50; for inhibition at 10 µM: read-out: Displacement Rate (%) (at 10 μM). The protocol:
Hi5 cells are infected using the following protocol: Cells at a density of 1×10^6 cells/mL are spun down at 1000 rpm (Beckman GS-6KR centrifuge) for 10 minutes. Cells are resuspended in 10% of their original volume in a sterile 50 mL conical centrifuge tube wrapped with aluminum foil. Virus is added at a Multiplicity of Infection (MOI) of 3 and incubated for 1 hour at room temperature with gentle shaking. […] Cells are spun down in 50 mL conical centrifuge tubes at 1000 rpm for 10 minutes. Each of the resulting pellets are resuspended in 10 mL of cold (4° C.) membrane buffer (25 mM HEPES, pH 7.4, 140 mM NaCl, 1.2 mM MgCl2, 2.5 mM CaCl2, 10 μG/mL Aprotinin, 10 μG/mL Leupeptin) and Dounce homogenized using 10-12 strokes. […] The resulting pellet is resuspended in cold membrane buffer in a total of ¼ of the original volume by vortexing and aspiration using a syringe and 27 gauge needle. Protein content is determined (Bradford, Bio-Rad Protein Assay). Membranes are aliquoted in microcentrifuge tubes and quick frozen in liquid nitrogen. Store at −80° C. until use. The membrane binding buffer is composed of 25 mM HEPES, pH 7.4, 140 mM NaCl, 1.2 mM MgCl2, 2.5 mM CaCl2, 0.1% BSA. […] The mixture is filtered with Brandel Microplate 96 filter apparatus using 96-well GF/B filter presoaked in 1-% polyethyleneimine (Sigma). The filter is washed (4 times with a total of 1 mL per well) with cold wash buffer consisting of 20 mM HEPES, pH 7.4, 5 mM MgCl2. […] 100 μl of Wallac Optiphase Supermix scintillation fluid is added to each well. The top is sealed and the plates are shaken to insure that the filters are thoroughly soaked with fluid. […] Dose-response curves are fitted by […] analyses and IC50 values are calculated using ExcelFit.

Where [1] appears, read: at 10 μM, [125I]NDP-α-MSH displacement.

Like-named read-outs stand apart in the source and are kept apart here.

T1 sequence (P32245 whole entry): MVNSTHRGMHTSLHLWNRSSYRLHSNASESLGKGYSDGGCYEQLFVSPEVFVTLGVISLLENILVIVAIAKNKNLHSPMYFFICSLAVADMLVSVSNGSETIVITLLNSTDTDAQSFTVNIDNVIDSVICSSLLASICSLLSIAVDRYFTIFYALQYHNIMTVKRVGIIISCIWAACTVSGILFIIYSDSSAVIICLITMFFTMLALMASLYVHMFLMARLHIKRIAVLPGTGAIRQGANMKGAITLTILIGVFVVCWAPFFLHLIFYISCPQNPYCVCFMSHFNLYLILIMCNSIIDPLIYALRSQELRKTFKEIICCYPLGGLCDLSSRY

`N[C@@H](Cc1ccc(OCCc2ccc(Cl)cc2Cl)cc1)C(=O)N1CCN(Cc2cccc(Cl)c2Cl)CC1` [Example 246]: the IC50 is under 1500 nM. Further, the “Displacement Rate (%) (at 10 μM)” value under setting [1] is reported as “+++ (+++ = 91-100)”.

In the case of `COc1ccc2ccccc2c1CN1CCCN(C(=O)[C@@H](N)Cc2ccc(OCc3ccccc3)cc2)CC1` [Example 43], the IC50 is 1500 to 3000 nM. Under setting [1], the inhibition at 10 µM lay in the range of 71 to 90%.

For `N[C@@H](Cc1ccc(OCc2ccccc2)cc1)C(=O)N1CCN(Cc2cc3c(cc2Cl)OCO3)CC1` [Example 124], the inhibition at 10 µM lay in the range of 71 to 90% and the concentration for half-maximal inhibition (IC50) was over 3000 nM. `Cc1ccc(S(=O)(=O)n2cc(CN3CCN(C(=O)[C@@H](N)Cc4ccc(OCc5ccccc5)cc4)CC3)c3ccccc32)cc1` [Example 97]: the IC50 was under 1500 nM. Also, the inhibition at 10 µM under setting [1] fell in the range of 91 to 100%. Taken in the same sequence, the figures for `COc1cc(CN2CCCN(C(=O)[C@@H](N)Cc3ccc(OCc4ccccc4)cc3)CC2)cc(Br)c1OC` [Example 59] were over 3000 nM and 35 to 70%. In the same order, the values of `N[C@@H](Cc1ccc(-c2cccc(Cl)c2)cc1)C(=O)N1CCN(Cc2cccc(Cl)c2Cl)CC1` [Example 301] are under 1500 nM and 91 to 100%. In the same order, the values of `N[C@@H](Cc1ccc(-c2ccc(F)cc2)cc1)C(=O)N1CCN(Cc2cccc(Cl)c2Cl)CC1` [Example 296] are under 1500 nM and 91 to 100%. As for `N[C@@H](Cc1ccc(-c2ccc(-c3ccccc3)cc2)cc1)C(=O)N1CCN(Cc2cccc(Cl)c2Cl)CC1` [Example 314], the concentration for half-maximal inhibition (IC50) lay within 1500 to 3000 nM. The inhibition at 10 µM under setting [1] is 91 to 100%.

With `COc1ccc(-c2ccc(C[C@H](N)C(=O)N3CCN(Cc4cccc(Cl)c4Cl)CC3)cc2)c(OC)c1` [Example 322], the IC50 lay within 1500 to 3000 nM. Also, under setting [1], the “Displacement Rate (%) (at 10 μM)” value is given as “++ (++ = 71-90)”. Taken in the same sequence, the figures for `CCOc1ccccc1COc1ccc(C[C@H](N)C(=O)N2CCN(Cc3cccc(Cl)c3Cl)CC2)cc1` [Example 221] were 1500 to 3000 nM and “+++ (+++ = 91-100)”. As to `CC(C)N[C@@H](Cc1ccc(OCc2ccccc2)cc1)C(=O)N1CCN(Cc2cccc(Cl)c2Cl)CC1` [Example 168], the IC50 is under 1500 nM. For the same molecule, under setting [1], the inhibition at 10 µM was 71 to 90%. Taken in the same sequence, the figures for `N[C@@H](Cc1ccc(-c2ccccc2Cl)cc1)C(=O)N1CCN(Cc2cccc(Cl)c2Cl)CC1` [Example 321] were 1500 to 3000 nM and 91 to 100%.

Turning to `N[C@@H](Cc1ccc(-c2cccc3ccccc23)cc1)C(=O)N1CCN(Cc2cccc(Cl)c2Cl)CC1` [Example 300], the half-inhibitory concentration (IC50) is under 1500 nM. Moreover, the inhibition at 10 µM under setting [1] is 91 to 100%. For the molecule `CCc1ccc(-c2ccc(C[C@H](N)C(=O)N3CCN(Cc4cccc(Cl)c4Cl)CC3)cc2)cc1` [Example 291], the IC50 is under 1500 nM. Also, the inhibition at 10 µM under setting [1] fell in the range of 91 to 100%.

Regarding `CC(C)(C)c1ccc(CN2CCN(C(=O)[C@@H](N)Cc3ccc(OCc4ccccc4)cc3)CC2)cc1` [Example 112], the concentration for half-maximal inhibition (IC50) fell in the range of 1500 to 3000 nM. The inhibition at 10 µM under setting [1] was 71 to 90%. Take `Cc1cc(C)cc(COc2ccc(C[C@H](N)C(=O)N3CCN(Cc4cccc(Cl)c4Cl)CC3)cc2)c1` [Example 190]: the IC50 is 1500 to 3000 nM. Besides, the “Displacement Rate (%) (at 10 μM)” value under setting [1] is reported as “+++ (+++ = 91-100)”. Regarding `N[C@@H](Cc1ccc(-c2ccc(C(=O)O)cc2)cc1)C(=O)N1CCN(Cc2cccc(Cl)c2Cl)CC1` [Example 329], the concentration for half-maximal inhibition (IC50) was over 3000 nM. Also, the inhibition at 10 µM under setting [1] was in the range of 71 to 90%.

`N[C@@H](Cc1ccc(-c2cccc3c2sc2ccccc23)cc1)C(=O)N1CCN(Cc2cccc(Cl)c2Cl)CC1` [Example 337]: the inhibition at 10 µM was 91 to 100% and the half-maximal inhibitory concentration (IC50) is under 1500 nM. For `CCn1c2ccccc2c2cc(CN3CCCN(C(=O)[C@@H](N)Cc4ccc(OCc5ccccc5)cc4)CC3)ccc21` [Example 3], the concentration for half-maximal inhibition (IC50) is under 1500 nM. In addition, the inhibition at 10 µM under setting [1] fell in the range of 91 to 100%. For the molecule `COc1ccc(CCCOc2ccc(C[C@H](N)C(=O)N3CCN(Cc4cccc(Cl)c4Cl)CC3)cc2)cc1` [Example 264], the concentration for half-maximal inhibition (IC50) was 1500 to 3000 nM. In addition, the “Displacement Rate (%) (at 10 μM)” value under setting [1] was “++ (++ = 71-90)”. `N[C@@H](Cc1ccc(OCc2ccccc2)cc1)C(=O)N1CCN(Cc2ccc(Oc3ccccc3)cc2)CC1` [Example 84]: the IC50 is under 1500 nM. Further, under setting [1], the inhibition at 10 µM lay within 91 to 100%. Turning to `N[C@@H](Cc1ccc(OCCCc2ccc(OCc3ccccc3)cc2)cc1)C(=O)N1CCN(Cc2cccc(Cl)c2Cl)CC1` [Example 260], the IC50 was under 1500 nM. For the same molecule, the “Displacement Rate (%) (at 10 μM)” value under setting [1] is recorded as “+++ (+++ = 91-100)”. For the molecule `CC(C)c1ccc(-c2ccc(C[C@H](N)C(=O)N3CCN(Cc4cccc(Cl)c4Cl)CC3)cc2)cc1` [Example 332], the half-maximal inhibitory concentration (IC50) is over 3000 nM. Moreover, the inhibition at 10 µM under setting [1] is 35 to 70%.

Consider `COc1cc(-c2ccc(C[C@H](N)C(=O)N3CCN(Cc4cccc(Cl)c4Cl)CC3)cc2)cc(OC)c1OC` [Example 334], for which the half-maximal inhibitory concentration (IC50) was over 3000 nM. For the same molecule, under setting [1], the inhibition at 10 µM was 35 to 70%. Taken in the same sequence, the figures for `CN(C)c1ccc(CN2CCCN(C(=O)[C@@H](N)Cc3ccc(OCc4ccccc4)cc3)CC2)cc1` [Example 79] were over 3000 nM and 35 to 70%. In the same order, the values of `N[C@@H](Cc1ccc(OCc2ccccc2)cc1)C(=O)N1CCCN(Cc2ccc(OCc3ccc([N+](=O)[O-])cc3)cc2)CC1` [Example 27] are under 1500 nM and 71 to 90%. Consider `N[C@@H](Cc1ccc(OCc2ccc(OCc3ccccc3)cc2)cc1)C(=O)N1CCN(Cc2cccc(Cl)c2Cl)CC1` [Example 208], for which the half-maximal inhibitory concentration (IC50) was 1500 to 3000 nM. In addition, the “Displacement Rate (%) (at 10 μM)” value under setting [1] is “+++ (+++ = 91-100)”. For `CCn1c2ccccc2c2cc(CN3CCN(C(=O)[C@@H](N)Cc4ccc(OCc5ccccc5)cc4)CC3)ccc21` [Example 89], the half-inhibitory concentration (IC50) is under 1500 nM. In addition, the inhibition at 10 µM under setting [1] is 91 to 100%. Taken in the same sequence, the figures for `CN(C)c1ccc(-c2ccc(C[C@H](N)C(=O)N3CCN(Cc4cccc(Cl)c4Cl)CC3)cc2)cc1` [Example 323] were 1500 to 3000 nM and 71 to 90%. As for `N[C@@H](Cc1ccc(OCc2ccccc2)cc1)C(=O)N1CCN(C2CCN(CCc3ccccc3)CC2)CC1` [Example 139], the 50% inhibitory concentration (IC50) was in the range of 1500 to 3000 nM. In addition, the inhibition at 10 µM under setting [1] lay in the range of 35 to 70%. Turning to `N[C@@H](Cc1ccc(OCc2cccc3ccccc23)cc1)C(=O)N1CCN(Cc2cccc(Cl)c2Cl)CC1` [Example 218], the half-inhibitory concentration (IC50) was in the range of 1500 to 3000 nM. Under setting [1], the “Displacement Rate (%) (at 10 μM)” value is “+++ (+++ = 91-100)”. Taken in the same sequence, the figures for `COc1ccc(CCOc2ccc(C[C@H](N)C(=O)N3CCN(Cc4cccc(Cl)c4Cl)CC3)cc2)cc1` [Example 254] were under 1500 nM and “+++ (+++ = 91-100)”. For the molecule `N[C@@H](Cc1ccc(OCc2ccccc2)cc1)C(=O)N1CCN(Cc2cccc(Cl)c2Cl)CC1` [Example 93], the 50% inhibitory concentration (IC50) was under 1500 nM. Besides, under setting [1], the inhibition at 10 µM is 91 to 100%. With `COc1ccc2ccccc2c1CN1CCN(C(=O)[C@@H](N)Cc2ccc(OCc3ccccc3)cc2)CC1` [Example 106], the 50% inhibitory concentration (IC50) lay within 1500 to 3000 nM. Further, the inhibition at 10 µM under setting [1] is 71 to 90%. Taken in the same sequence, the figures for `Cc1cccc(CN2CCN(C(=O)[C@@H](N)Cc3ccc(OCc4ccccc4)cc3)CC2)c1` [Example 144] were over 3000 nM and 35 to 70%.

As for `CCCCCOc1ccc(CN2CCCN(C(=O)[C@@H](N)Cc3ccc(OCc4ccccc4)cc3)CC2)cc1` [Example 32], the IC50 was under 1500 nM. The inhibition at 10 µM under setting [1] fell in the range of 71 to 90%. For `N[C@@H](Cc1ccc(-c2ccccc2)cc1)C(=O)N1CCN(Cc2cccc(Cl)c2Cl)CC1` [Example 289], the IC50 was under 1500 nM. For `N[C@@H](Cc1ccc(OCCc2ccc(Br)cc2)cc1)C(=O)N1CCN(Cc2cccc(Cl)c2Cl)CC1` [Example 241], the IC50 was under 1500 nM. Also, the “Displacement Rate (%) (at 10 μM)” value under setting [1] is recorded as “+++ (+++ = 91-100)”. In the same order, the values of `COc1cc(COc2ccc(C[C@H](N)C(=O)N3CCN(Cc4cccc(Cl)c4Cl)CC3)cc2)cc(OC)c1` [Example 194] are 1500 to 3000 nM and “+++ (+++ = 91-100)”. In the case of `COc1cccc(-c2ccc(C[C@H](N)C(=O)N3CCN(Cc4cccc(Cl)c4Cl)CC3)cc2)c1` [Example 325], the IC50 is 1500 to 3000 nM. In addition, the inhibition at 10 µM under setting [1] was in the range of 71 to 90%.

Take `N[C@@H](Cc1ccc(-c2cccc3c2oc2ccccc23)cc1)C(=O)N1CCN(Cc2cccc(Cl)c2Cl)CC1` [Example 336]: the inhibition at 10 µM fell in the range of 91 to 100% and the IC50 is under 1500 nM. For the molecule `Cc1ccccc1COc1ccc(C[C@H](N)C(=O)N2CCN(Cc3cccc(Cl)c3Cl)CC2)cc1` [Example 216], the 50% inhibitory concentration (IC50) lay within 1500 to 3000 nM. Also, the “Displacement Rate (%) (at 10 μM)” value under setting [1] was “+++ (+++ = 91-100)”.

For the origin of these results see US6916812B2, “Alpha-aminoamide derivatives as melanocortin agonists” (Bristol-Myers Squibb Company, priority 2001, dated 2005).
